Measurements from PMC4400266 (ACS chemical neuroscience, 2015).

Legend:
human OX1 receptors = molecular target: T1, human OX1 receptors (Homo sapiens, UniProt O43613); assay: Calcium mobilization Ke assay; assay type: cell-based; conditions: for OX2/OX1: ratio of Ke OX2 to Ke OX1 (table column)
T1 sequence (O43613 1-425): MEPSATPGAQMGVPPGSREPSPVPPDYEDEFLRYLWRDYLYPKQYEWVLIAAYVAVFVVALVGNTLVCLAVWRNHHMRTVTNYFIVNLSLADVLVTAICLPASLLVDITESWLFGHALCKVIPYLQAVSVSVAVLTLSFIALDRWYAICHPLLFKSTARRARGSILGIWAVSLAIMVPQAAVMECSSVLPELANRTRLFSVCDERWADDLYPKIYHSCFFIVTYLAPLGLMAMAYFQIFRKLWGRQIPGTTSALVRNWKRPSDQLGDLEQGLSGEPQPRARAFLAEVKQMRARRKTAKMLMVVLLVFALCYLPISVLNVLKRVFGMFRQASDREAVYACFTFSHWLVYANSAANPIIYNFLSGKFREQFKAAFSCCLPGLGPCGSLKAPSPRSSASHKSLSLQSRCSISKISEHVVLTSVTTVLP

human OX2 receptors = molecular target: T2, human OX2 receptors (Homo sapiens, UniProt O43614); assay: Calcium mobilization Ke assay; assay type: cell-based
T2 sequence (O43614 1-444): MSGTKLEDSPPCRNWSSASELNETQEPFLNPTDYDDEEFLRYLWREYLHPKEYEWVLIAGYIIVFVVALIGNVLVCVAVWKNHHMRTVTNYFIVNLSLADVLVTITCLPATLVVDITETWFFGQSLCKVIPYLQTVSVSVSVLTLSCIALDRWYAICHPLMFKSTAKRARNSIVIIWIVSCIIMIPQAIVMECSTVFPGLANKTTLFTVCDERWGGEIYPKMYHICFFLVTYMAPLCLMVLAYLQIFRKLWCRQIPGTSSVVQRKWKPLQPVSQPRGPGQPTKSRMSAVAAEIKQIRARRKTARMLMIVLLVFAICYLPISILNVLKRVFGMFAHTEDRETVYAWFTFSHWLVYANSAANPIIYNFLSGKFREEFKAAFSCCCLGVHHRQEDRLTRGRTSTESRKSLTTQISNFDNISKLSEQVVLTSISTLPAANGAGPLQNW

Sprague-Dawley rats = assay: Locomotor activity and acute cocaine-induced hyperactivity; assay type: in vivo, rat; conditions: 10 mg/kg alone, i.p. (data not shown)
OX1 = conditions: cited from earlier work
[1] = administrated i.p.; cited from earlier work

Structure (SMILES) | OX2/OX1 (human OX1 receptors) | Kb (human OX2 receptors) | other results
COc1cc(CC2c3cc(OC)c(OC)cc3CCN2CC(=O)NCc2ccccc2)ccc1O (centres unmarked) [Compound 12, N-Benzyl-2-{1-[(4-hydroxy-3-methoxyphenyl)methyl]-6,7-dimethoxy-1,2,3,4-tetrahydroisoquinolin-2-yl}acetamide] | >24 | > 10 µM | 
CCCCOc1ccc(CC2c3cc(OC)c(OC)cc3CCN2CC(=O)NCc2ccccc2)cc1OC (centres unmarked) [Compound 13, N-Benzyl-2-{1-[(4-butoxy-3-methoxyphenyl)methyl]-6,7-dimethoxy-1,2,3,4-tetrahydroisoquinolin-2-yl}acetamide] | 42 | 2 ± 0.86 µM | 
CCCCCCOc1ccc(CC2c3cc(OC)c(OC)cc3CCN2CC(=O)NCc2ccccc2)cc1OC (centres unmarked) [Compound 14, N-Benzyl-2-(1-{[4-(hexyloxy)-3-methoxyphenyl]methyl}-6,7-dimethoxy-1,2,3,4-tetrahydroisoquinolin-2-yl)acetamide] | >83 | > 10 µM | 
CCCC(=O)Oc1ccc(CC2c3cc(OC)c(OC)cc3CCN2CC(=O)NCc2ccccc2)cc1OC (centres unmarked) [Compound 16, 4-({2-[(Benzylcarbamoyl)methyl]-6,7-dimethoxy-1,2,3,4-tetrahydroisoquinolin-1-yl}methyl)-2-methoxyphenyl butanoate] | 48 | 2.08 ± 0.6 µM | 
COc1cc2c(cc1OC)C(Cc1ccc(OCc3ccccc3)c(OC)c1)N(CC(=O)NCc1ccccc1)CC2 (centres unmarked) [Compound 18, N-Benzyl-2-(1-{[4-(benzyloxy)-3-methoxyphenyl]methyl}-6,7-dimethoxy-1,2,3,4-tetrahydroisoquinolin-2-yl)acetamide] |  |  | decrease in OX1 potency compared to 11 (human OX1 receptors): 2 fold
COc1cc2c(cc1OC)C(Cc1ccc(OS(=O)(=O)c3ccccc3)c(OC)c1)N(CC(=O)NCc1ccccc1)CC2 (centres unmarked) [Compound 23, 4-({2-[(Benzylcarbamoyl)methyl]-6,7-dimethoxy-1,2,3,4-tetrahydroisoquinolin-1-yl}methyl)-2-methoxyphenyl benzenesulfonate] |  |  | decrease in OX1 potency compared to 11 (human OX1 receptors): ~ 9 fold
COc1cc2c(cc1OC)C(Cc1ccc(OC)c([N+](=O)[O-])c1)N(CC(=O)NCc1ccccc1)CC2 (centres unmarked) [Compound 26, N-Benzyl-2-{6,7-dimethoxy-1-[(4-methoxy-3-nitrophenyl)methyl]-1,2,3,4-tetrahydroisoquinolin-2-yl}acetamide] |  |  | decrease in OX1 potency compared to 11 (human OX1 receptors): ~ 7 fold
COc1cc2c(cc1OC)C(Cc1ccc(OC)c(N(C)C)c1)N(CC(=O)NCc1ccccc1)CC2 (centres unmarked) [Compound 28, N-Benzyl-2-(1-{[3-(dimethylamino)-4-methoxyphenyl]methyl}-6,7-dimethoxy-1,2,3,4-tetrahydroisoquinolin-2-yl)acetamide] | 76.7 | 0.97 ± 0.35 µM | 
CCNc1cc(CC2c3cc(OC)c(OC)cc3CCN2CC(=O)NCc2ccccc2)ccc1OC (centres unmarked) [Compound 29, N-Benzyl-2-(1-{[3-(ethylamino)-4-methoxyphenyl]methyl}-6,7-dimethoxy-1,2,3,4-tetrahydroisoquinolin-2-yl)acetamide] | >32 | > 10 µM | 
CCN(CC)c1cc(CC2c3cc(OC)c(OC)cc3CCN2CC(=O)NCc2ccccc2)ccc1OC (centres unmarked) [Compound 30, N-Benzyl-2-(1-{[3-(diethylamino)-4-methoxyphenyl]methyl}-6,7-dimethoxy-1,2,3,4-tetrahydroisoquinolin-2-yl)acetamide] | >48 | > 10 µM | 
CCCNc1cc(CC2c3cc(OC)c(OC)cc3CCN2CC(=O)NCc2ccccc2)ccc1OC (centres unmarked) [Compound 31, N-Benzyl-2-(6,7-dimethoxy-1-{[4-methoxy-3-(propylamino)phenyl]methyl}-1,2,3,4-tetrahydroisoquinolin-2-yl)acetamide] | >11 | > 10 µM | 
COc1ccc(CC2c3cc(OC)c(OC)cc3CCN2CC(=O)NCc2ccccc2)cc1NCc1ccccc1 (centres unmarked) [Compound 33, N-Benzyl-2-(1-{[3-(benzylamino)-4-methoxyphenyl]methyl}-6,7-dimethoxy-1,2,3,4-tetrahydroisoquinolin-2-yl)acetamide] |  |  | OX1 antagonist activity in words (human OX1 receptors; at concentrations up to 10 μM): no activity
COc1cc2c(cc1OC)C(Cc1cccc(OC(C)C)c1)N(CC(=O)NCc1ccccc1)CC2 (centres unmarked) [Compound 41, N-Benzyl-2-(6,7-dimethoxy-1-{[3-(propan-2-yloxy)phenyl]methyl}-1,2,3,4-tetrahydroisoquinolin-2-yl)acetamide] | >6.8 | > 10 µM | decrease in OX1 potency compared to 11 (human OX1 receptors): ~ 7 fold
COc1cc2c(cc1OC)C(Cc1cccc([N+](=O)[O-])c1)N(CC(=O)NCc1ccccc1)CC2 (centres unmarked) [Compound 42, N-Benzyl-2-{6,7-dimethoxy-1-[(3-nitrophenyl)methyl]-1,2,3,4-tetrahydroisoquinolin-2-yl}acetamide] | <0.12 | 1.2 ± 0.16 µM | 
COc1cc2c(cc1OC)C(Cc1cccc(N(C)C)c1)N(CC(=O)NCc1ccccc1)CC2 (centres unmarked) [Compound 44, N-Benzyl-2-(1-{[3-(dimethylamino)phenyl]methyl}-6,7-dimethoxy-1,2,3,4-tetrahydroisoquinolin-2-yl)acetamide] | 8.8 | 0.66 ± 0.16 µM | 
CCCOc1ccc(CC2c3cc(OC)c(OC)cc3CCN2CC(=O)NCc2ccccc2)cc1 (centres unmarked) [Compound 45, N-Benzyl-2-{6,7-dimethoxy-1-[(4-propoxyphenyl)methyl]-1,2,3,4-tetrahydroisoquinolin-2-yl}acetamide] | >27 | > 10 µM | 
COc1cc2c(cc1OC)C(Cc1ccc(OC(C)C)cc1)N(CC(=O)NCc1ccccc1)CC2 (centres unmarked) [Compound 46, N-Benzyl-2-(6,7-dimethoxy-1-{[4-(propan-2-yloxy)phenyl]methyl}-1,2,3,4-tetrahydroisoquinolin-2-yl)acetamide] | >20 | > 10 µM | 
COc1cc2c(cc1OC)C(Cc1ccc(N(C)C)cc1)N(CC(=O)NCc1ccccc1)CC2 (centres unmarked) [Compound 48, N-Benzyl-2-(1-{[4-(dimethylamino)phenyl]methyl}-6,7-dimethoxy-1,2,3,4-tetrahydroisoquinolin-2-yl)acetamide] | >40 | > 10 µM | 
COc1cc2c(cc1OC)C(Cc1ccc(C(C)C)cc1)N(CC(=O)NCc1ccccc1)CC2 (centres unmarked) [Compound 51, N-Benzyl-2-(6,7-dimethoxy-1-{[4-(propan-2-yl)phenyl]methyl}-1,2,3,4-tetrahydroisoquinolin-2-yl)acetamide] | >118 | > 10 µM | 
COc1cc2c(cc1OC)C(Cc1cc(OC)c(OC)c(OC)c1)N(CC(=O)NCc1ccccc1)CC2 (centres unmarked) [Compound 52, N-Benzyl-2-{6,7-dimethoxy-1-[(3,4,5-trimethoxyphenyl)methyl]-1,2,3,4-tetrahydroisoquinolin-2-yl}acetamide] |  | > 10 µM | 
COc1cc2c(cc1OC)C(Cc1ccc(C)c(C)c1)N(CC(=O)NCc1ccccc1)CC2 (centres unmarked) [Compound 53, N-Benzyl-2-{1-[(3,4-dimethylphenyl)methyl]-6,7-dimethoxy-1,2,3,4-tetrahydroisoquinolin-2-yl}acetamide] |  | > 10 µM | 
COc1cc2c(cc1OC)C(Cc1ccc3ccccc3c1)N(CC(=O)NCc1ccccc1)CC2 (centres unmarked) [Compound 54, N-Benzyl-2-[6,7-dimethoxy-1-(naphthalen-2-ylmethyl)-1,2,3,4-tetrahydroisoquinolin-2-yl]acetamide] | 6.6 | 1.62 ± 0.23 µM | 
COc1cc2c(cc1OC)C(Cc1ccc3ncccc3c1)N(CC(=O)NCc1ccccc1)CC2 (centres unmarked) [Compound 55, N-Benzyl-2-[6,7-dimethoxy-1-(quinolin-6-ylmethyl)-1,2,3,4-tetrahydroisoquinolin-2-yl]acetamide] | >23 | > 10 µM | 
COc1cc2c(cc1OC)C(C(C)c1ccccc1)N(CC(=O)NCc1ccccc1)CC2 (centres unmarked) [Compound 56, N-Benzyl-2-[6,7-dimethoxy-1-(1-phenylethyl)-1,2,3,4-tetrahydroisoquinolin-2-yl]acetamide] |  | > 10 µM | 
COc1ccc(CCC2c3cc(OC)c(OC)cc3CCN2CC(=O)NCc2ccccc2)cc1OC (centres unmarked) [Compound 60, N-Benzyl-2-{1-[2-(3,4-dimethoxyphenyl)ethyl]-6,7-dimethoxy-1,2,3,4-tetrahydroisoquinolin-2-yl}acetamide] |  | > 10 µM | 
CCCOc1ccc(CC2c3cc(OCCC)c(OC)cc3CCN2CC(=O)NCc2ccccc2)cc1OC (centres unmarked) [Compound 73, N-Benzyl-2-{6-methoxy-1-[(3-methoxy-4-propoxyphenyl)methyl]-7-propoxy-1,2,3,4-tetrahydroisoquinolin-2-yl}acetamide] |  |  | spontaneous activity (Sprague-Dawley rats): did not significantly alter the spontaneous activity; OX1 selectivity over the OX2 receptor (human OX1 receptors): > 620 fold
Cc1nc2ccc(NC(=O)Nc3ccnc4cccnc34)cc2o1 [SB-334867] |  |  | affinity for OX1 higher than for OX2 (OX1): ~ 50 fold; development of locomotor sensitization to cocaine [1]: block the development of locomotor sensitization to cocaine
